Experiments:
[1] = tested on: human cancer cells; settings: compared with TAXOL; cited from earlier work

Row | melting point [°C] | Compound | cytotoxic activity [1]
1 | 83 to 85 | COC(=O)C1C(c2ccccc2)[C@]2(c3ccc(OC)cc3)Oc3cc(OC)cc(OC)c3[C@@]1(O)C2=O (some centres unmarked) | 
2 |  | COC(=O)[C@H]1[C@@H](O)[C@@]2(O)c3c(OC)cc(O[C@@H]4O[C@@H]([C@H](O)CO)CO[C@H]4OC)cc3O[C@@]2(c2ccc(OC)cc2)[C@@H]1c1ccccc1 [silvestrol B, silvestrol] | comparable to the anticancer drug TAXOL®
